Reference: ChEMBL document CHEMBL5576160, “N-Substituted Pyrrole-Based Heterocycles as Broad-Spectrum Filoviral Entry Inhibitors” (J Med Chem, 2024)
The source made the active and inactive calls. The calls are words filed in the database; no cut-off is given here.

Assays:
CYP2C9 = CYP2C9 (Homo sapiens, UniProt P11712); test: Inhibition of CYP2C9 in human liver microsomes using tolbutamide as substrate at 10 uM preincubated with compound for 5 mins followed by NADPH addition and measured after 20 mins by LC-MS/MS analysis relative to control; type: ADME, Microsome; settings: probe tolbutamide, time 25 min
Chain of CYP2C9 (P11712 whole entry): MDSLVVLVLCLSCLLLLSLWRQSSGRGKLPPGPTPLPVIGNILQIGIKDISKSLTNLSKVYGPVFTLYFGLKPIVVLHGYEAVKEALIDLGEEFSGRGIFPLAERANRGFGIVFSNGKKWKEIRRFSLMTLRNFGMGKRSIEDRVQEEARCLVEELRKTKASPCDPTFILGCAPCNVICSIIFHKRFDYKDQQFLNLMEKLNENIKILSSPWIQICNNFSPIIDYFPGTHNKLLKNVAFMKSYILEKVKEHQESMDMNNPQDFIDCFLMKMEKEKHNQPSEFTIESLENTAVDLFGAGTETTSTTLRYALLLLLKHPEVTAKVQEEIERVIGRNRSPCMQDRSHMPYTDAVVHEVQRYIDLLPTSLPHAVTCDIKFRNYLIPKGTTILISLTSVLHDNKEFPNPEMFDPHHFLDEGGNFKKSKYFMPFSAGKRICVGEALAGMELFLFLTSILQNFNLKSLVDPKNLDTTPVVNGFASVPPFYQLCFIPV

[1] = Stability in human plasma measured after 60 mins; type: ADME, cell-free; settings: read-out: Stability
[2] = Selectivity index, ratio of CC50 for cytotoxicity against human A549 cells to EC50 for antiviral activity against pseudotyped EBOV Mayinga infected in human A549 cells assessed as inhibition of Pseudoviral entry; type: toxicity, cell-based; settings: read-out: Ratio CC50/EC50
[3] = Selectivity index, ratio of CC50 for cytotoxicity against human A549 cells to EC50 for antiviral activity against pseudotyped Marburgvirus Angola infected in human A549 cells assessed as inhibition of Pseudoviral entry; type: toxicity, cell-based; settings: read-out: Ratio CC50/EC50
CYP2D6 = CYP2D6 (Homo sapiens, UniProt P10635); test: Inhibition of CYP2D6 in human liver microsomes using dextromethorphan as substrate at 10 uM preincubated with compound for 5 mins followed by NADPH addition and measured after 20 mins by LC-MS/MS analysis relative to control; type: ADME, Microsome; settings: probe dextromethorphan, time 25 min
Chain of CYP2D6 (P10635 whole entry): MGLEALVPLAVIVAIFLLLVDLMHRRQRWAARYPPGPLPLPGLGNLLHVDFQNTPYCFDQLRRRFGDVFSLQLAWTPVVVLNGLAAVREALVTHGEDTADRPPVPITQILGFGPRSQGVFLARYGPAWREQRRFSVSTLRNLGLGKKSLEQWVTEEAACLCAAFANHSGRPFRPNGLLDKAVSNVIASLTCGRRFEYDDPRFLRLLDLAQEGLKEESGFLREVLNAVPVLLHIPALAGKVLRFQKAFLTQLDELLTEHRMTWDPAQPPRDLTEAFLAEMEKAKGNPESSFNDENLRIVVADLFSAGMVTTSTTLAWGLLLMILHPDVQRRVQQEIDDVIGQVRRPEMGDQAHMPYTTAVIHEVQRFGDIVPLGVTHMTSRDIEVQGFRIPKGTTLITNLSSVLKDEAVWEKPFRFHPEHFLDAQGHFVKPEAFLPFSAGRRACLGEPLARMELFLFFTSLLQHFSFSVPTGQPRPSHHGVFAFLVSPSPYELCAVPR

Sudan ebolavirus [4] = test: Antiviral activity against pseudotyped Sudan ebolavirus Gulu infected in human HeLa cells assessed as inhibition of viral replication; type: functional, organism-based
Ebolavirus [5] = test: Antiviral activity against pseudotyped EBOV Mayinga infected in human A549 cells assessed as inhibition of Pseudoviral entry incubated for 40 hrs; type: functional, organism-based; settings: Orthoebolavirus, A549, 40 h
Marburgvirus [6] = test: Antiviral activity against Marburgvirus Angola infected in human Huh-7 cells assessed as inhibition of viral replication; type: functional, organism-based; settings: Orthomarburgvirus
Marburgvirus [7] = test: Antiviral activity against pseudotyped Marburgvirus Angola infected in human A549 cells assessed as inhibition of Pseudoviral entry incubated for 40 hrs; type: functional, organism-based; settings: Orthomarburgvirus, A549, 40 h
Ebolavirus [8] = test: Antiviral activity against pseudotyped EBOV Mayinga infected in human A549 cells assessed as inhibition of viral growth at 3 uM measured after 3 hrs; type: functional, organism-based
Ebolavirus [9] = test: Antiviral activity against EBOV Mayinga infected in human HeLa cells assessed as inhibition of viral replication incubated for 40 hrs; type: functional, organism-based; settings: Orthoebolavirus
Marburgvirus [10] = test: Antiviral activity against pseudotyped Marburgvirus Angola infected in human A549 cells assessed as inhibition of viral growth at 10 uM entry measured after 2 hrs; type: functional, organism-based
[11] = Stability in mouse plasma measured after 60 mins; type: ADME, cell-free; settings: read-out: Stability
[12] = Metabolic stability in human microsome measured at 60 min; type: ADME; settings: microsomes, read-out: Stability
[13] = Binding affinity to EBOV glycoprotein assessed as dissociation constant by SPR analysis; parameters: species or system Ebolavirus
A549 = test: Cytotoxicity against human A549 cells assessed as as reduction in cell viability incubated for 48 hrs by celltiter-glo assay; type: functional
Sudan ebolavirus [14] = test: Antiviral activity against pseudotyped Sudan ebolavirus Gulu infected in human A549 cells assessed as inhibition of viral growth; type: functional, organism-based
Bundibugyo virus = test: Antiviral activity against pseudotyped Bundibugyo virus infected in human A549 cells assessed as inhibition of viral growth; type: functional, organism-based
Tai Forest ebolavirus = test: Antiviral activity against pseudotyped Tai Forest ebolavirus infected in human A549 cells assessed as inhibition of viral growth; type: functional, organism-based
Ebolavirus [15] = test: Antiviral activity against pseudotyped EBOV 1976 Zaire Mayinga assessed as inhibition of viral growth; type: functional, organism-based; settings: Orthoebolavirus
Ebolavirus [16] = test: Antiviral activity against infectious EBOV 1976 Zaire Mayinga assessed as inhibition of viral growth; type: functional, organism-based; settings: Orthoebolavirus
Marburgvirus [17] = test: Antiviral activity against pseudotyped Marburgvirus 2005 Lake Victoria Angola assessed as inhibition of viral growth; type: functional, organism-based; settings: Orthomarburgvirus

Compound | remaining at 1 h [1] [%] | selectivity ratio [2] | selectivity ratio [3] | EC50 (Sudan ebolavirus [4]) [µM] | EC50 (Ebolavirus [5]) [µM] | EC50 (Marburgvirus [6]) [µM] | EC50 (Marburgvirus [7]) [µM] | EC50 (Ebolavirus [9]) [µM] | remaining at 1 h [11] [%] | EC50 (Sudan ebolavirus [14]) [µM] | EC50 (Bundibugyo virus) [µM] | EC50 (Tai Forest ebolavirus) [µM] | also measured
CN(C)C1CCN(C(=O)c2cc3ccccc3n2CC2CCCCC2)CC1 | 100 | 170 | 15 | 0.652 | 0.295 | 1.32 | 3.34 | 0.391 | 100 |  |  |  | inhibition at 20 min, 10 µM (CYP2C9): 4.82%; inhibition at 20 min, 10 µM (CYP2D6): 19.1%; Activity (Ebolavirus [8]): inactive; Activity (Marburgvirus [10]): inactive
CN(C)C1CCN(C(=O)c2cn(Cc3ccccc3)c3ccccc23)CC1 | 100 |  | 6.9 |  | 2.84 |  | 14.6 |  | 100 |  |  |  | remaining at 1 h [12]: 95.7%
CN(C)CCOc1ccc(/C(=C(/CCCl)c2ccccc2)c2ccccc2)cc1 [TOREMIFENE] |  |  |  |  |  |  |  |  |  |  |  |  | Activity (Ebolavirus [8]): inactive; Activity (Marburgvirus [10]): inactive; Kd [13]: 18.9 µM
COc1ccc(Cn2c(C(=O)N3CCC(N(C)C)CC3)cc3ccccc32)cc1 |  |  | 13 | ~20 | 0.543 | 4.29 | 7.84 | 0.854 |  | 1.23 | 1.39 | 5.28 | CC50 (A549): ~100 µM
CN(C)C1CCN(C(=O)c2cc3sccc3n2Cc2ccc(Cl)cc2)CC1 |  | 61 | 15 |  | 0.899 |  | 3.7 |  |  | 1.01 | 1.9 | 4.14 | 
OCCOc1ccc(/C(=C(/CCCl)c2ccccc2)c2ccccc2)cc1 [OSPEMIFENE] |  |  |  |  |  |  |  |  |  |  |  |  | Kd [13]: 19.8 µM
CN(C)CCNC(=O)c1cc2ccccc2n1Cc1ccc(Cl)cc1 |  | 8.4 | 7.5 |  | 3.49 |  | 3.92 |  |  | 0.834 | 2.66 | 3.74 | 
CN(C)C1CCN(C(=O)c2cc3ccccc3n2Cc2ccccc2)CC1 | 100 | ~180 | 9.6 |  | 0.55 |  | 9.53 |  | 100 |  |  |  | CC50 (A549): ~100 µM
CN(C)C1CCN(C(=O)c2cc3ccccc3n2Cc2ccc(F)cc2)CC1 |  | 100 | 13 | 1.01 | 0.453 | > 20 | 4.99 | > 20 |  | 0.554 | 0.353 | 2.7 | 
CN(C)C1CCN(C(=O)c2cc3occc3n2Cc2ccc(Cl)cc2)CC1 | 100 | 58 | 5.3 | 0.5 | 1.05 | 7.96 | 11.5 | 6.21 | 100 | 0.641 | 1.99 | 5.6 | 
O=C(Nc1ccc(N2CCC(F)(F)CC2)cc1)c1cc2occc2n1Cc1ccc(Cl)cc1 |  | 8.6 | 1 |  | 11.7 |  | > 100 |  |  | 2.39 | 36.4 | > 100 | CC50 (A549): > 100 µM
CN(C)CCNC(=O)c1cc2occc2n1Cc1ccc(Cl)cc1 | 100 | 50 | 9.8 | 3.29 | 1.26 | 6.69 | 6.47 | 2.43 | 100 | 1.04 | 1.95 | 4.3 | EC50 (Ebolavirus [15]): 1.26 µM; EC50 (Ebolavirus [16]): 5.2 µM; EC50 (Marburgvirus [17]): 7.7 µM
